Measurements published in US20150297509A1, “IMPLANTABLE DRUG DELIVERY COMPOSITIONS AND METHODS OF TREATMENT THEREOF” (BRAEBURN PHARMACEUTICALS BVBA SPRL, priority 2012, published 2015).
Structures can show the parent of a compound that is named as a salt.

Tests used:
[1] = in vitro elution of lidocaine from TECOFLEX EG-93A polyurethane implants; format: physicochemical; conditions: TECOFLEX EG-93A tubing, about 180 mg pure lidocaine without excipients, 300 mL 0.9% saline at 37° C, daily exchanges, up to 8 days; for release of drug from the implant (in vitro elution): HPLC
Protocol: (§1) The follow general procedure was followed for the manufacture of API-containing implants.
(§2) Sterilization was accomplished by gamma irradiation of the implants.
A total of about 180 mg pure (100%) lidocaine were loaded into the implant without any excipients (without any sorption enhancer or lubricant).

[2] = in vitro elution of raloxifene from TECOFLEX EG-80A polyurethane implants; format: physicochemical; conditions: TECOFLEX EG-80A tubing, 88% API, 10% croscarmellose sodium, 2% stearic acid, about 250 mg raloxifene, 800 mL 0.9% saline at 37° C, weekly exchanges, HPLC, up to 20 weeks
Protocol: as §1, §2
The drug blend was 88% API, 10% sorption enhancer, and 2% lubricant. […] A total of about 250 mg raloxifene were loaded into the implant with 10% croscarmellose sodium and 2% stearic acid.

[3] = oral dosage form, target oral daily dose about 60 mg; cited from earlier work

SMILES | release of drug from the implant (in vitro elution) [1] | release of drug from the implant (in vitro elution) [2] | other results
CCN(CC)CC(=O)Nc1c(C)cccc1C [lidocaine free base] | readily released | – | in vitro elution rate from the implant [1]: more than 10 mg/day
CCN(CC)CC(=O)Nc1c(C)cccc1C [lidocaine hydrochloride] | No drug was released | – | release of drug from the implant (in vitro elution) ([1]; listed as lidocaine HCl): no drug was released
O=C(c1ccc(OCCN2CCCCC2)cc1)c1c(-c2ccc(O)cc2)sc2cc(O)ccc12 [raloxifene free base, [6-hydroxy-2-(4-hydroxyphenyl)-benzothiophen-3-yl]-[4-[2-(1-piperidyl)ethoxy]phenyl]-methanone] | – | readily released | –
O=C(c1ccc(OCCN2CCCCC2)cc1)c1c(-c2ccc(O)cc2)sc2cc(O)ccc12 [raloxifene hydrochloride] | – | No drug was released | oral bioavailability [3]: ~2%; release of drug from the implant (in vitro elution) ([2]; listed as raloxifene HCI): no drug was released
